The subject of this assay is NSCLC tumor cells (NCl-H460). Description: cell competition experiment: uptake of 3H-glutamic acid into tumor cells. It is filed as cell-based. As to conditions: NCI-H460 cells, 10 min incubation with 1 µci 3H-glutamic acid in PBS-buffer, test compound 1 mM (excess). The protocol:
Figure 1: Examination of biological activity of (2S)-2-Amino-7-fluoro-4-phosphonoheptanoic acid in a cell competition experiment. (NCI-H460 cells, 10 min incubation with 1 µci 3H-glutamic acid in PBS-buffer, concentration of (2S)-2-Amino-7-fluoro-4-phosphonoheptanoic acid 1 mM).
The ability of compounds from the present invention to compete with uptake of glutamic acid into tumor cells was examined. Therefore, NSCLC tumor cells (NCl-H460) were co-incubated with 3H-labeled glutamic acid and (2S)-2-Amino-7-fluoro-4-phosphonoheptanoic acid. This compound was used in excess (1 mM) to the tracer 3H-glutamic acid.

Structures are written as SMILES.

With `N[C@@H](CC(CCCF)P(=O)(O)O)C(=O)O` (stereo partly drawn) [(2S)-2-Amino-7-fluoro-4-phosphonoheptanoic acid], the “uptake of 3H-glutamic acid” value is given as “could be decreased”.

The values above are taken from patent EP2322514A1, “Homoglutamic acid and glutamic acid derivatives” (Bayer Schering Pharma Aktiengesellschaft, priority 2009, dated 2011).
